Measured values: the NIST ThermoML archive (doi:10.1021/je050175u)
Values joined by “and” are separate entries in the source; they are usually repeats but may differ in a detail not shown here. Equal entries are not always repeated. Numbers after ± are expanded uncertainties.

Assay: excess molar enthalpy (molar enthalpy of mixing); xn = mol fraction of the nth substance listed
Conditions: Liquid, Flow calorimetry

CC(C)CO [2-methyl-1-propanol] + COC(C)=O
Conditions | excess molar enthalpy
298.15 K, 5000 kPa, x2 = 0.303 | 0.341 ± 0.00359 kcal/mol
298.15 K, 5000 kPa, x2 = 0.352 | 0.368 ± 0.00406 kcal/mol
298.15 K, 5000 kPa, x2 = 0.402 | 0.388 ± 0.00406 kcal/mol
298.15 K, 5000 kPa, x2 = 0.453 | 0.401 ± 0.0043 kcal/mol
298.15 K, 5000 kPa, x2 = 0.504 | 0.405 ± 0.0043 kcal/mol
298.15 K, 5000 kPa, x2 = 0.553 | 0.402 ± 0.0043 kcal/mol
298.15 K, 5000 kPa, x2 = 0.603 | 0.392 ± 0.00406 kcal/mol
298.15 K, 5000 kPa, x2 = 0.654 | 0.374 ± 0.00406 kcal/mol
298.15 K, 5000 kPa, x2 = 0.702 | 0.347 ± 0.00359 kcal/mol
298.15 K, 5000 kPa, x2 = 0.751 | 0.315 ± 0.00335 kcal/mol
298.15 K, 5000 kPa, x2 = 0.801 | 0.271 ± 0.00287 kcal/mol
298.15 K, 5000 kPa, x2 = 0.851 | 0.219 ± 0.00239 kcal/mol
298.15 K, 5000 kPa, x2 = 0.902 | 0.154 ± 0.00182 kcal/mol
298.15 K, 5000 kPa, x2 = 0.951 | 0.0827 ± 0.00112 kcal/mol
298.15 K, 10000 kPa, x2 = 0.049 | 0.0751 ± 0.00172 kcal/mol
298.15 K, 10000 kPa, x2 = 0.099 | 0.146 ± 0.00215 kcal/mol
298.15 K, 10000 kPa, x2 = 0.15 | 0.208 ± 0.00263 kcal/mol
298.15 K, 10000 kPa, x2 = 0.199 | 0.259 ± 0.00311 kcal/mol
298.15 K, 10000 kPa, x2 = 0.249 | 0.303 ± 0.00335 kcal/mol
298.15 K, 10000 kPa, x2 = 0.3 | 0.339 ± 0.00359 kcal/mol
298.15 K, 10000 kPa, x2 = 0.349 | 0.366 ± 0.00406 kcal/mol
298.15 K, 10000 kPa, x2 = 0.401 | 0.388 ± 0.00406 kcal/mol
298.15 K, 10000 kPa, x2 = 0.449 | 0.4 ± 0.0043 kcal/mol
298.15 K, 10000 kPa, x2 = 0.5 | 0.404 ± 0.0043 kcal/mol
298.15 K, 10000 kPa, x2 = 0.55 | 0.402 ± 0.0043 kcal/mol
298.15 K, 10000 kPa, x2 = 0.6 | 0.392 ± 0.0043 kcal/mol
298.15 K, 10000 kPa, x2 = 0.65 | 0.374 ± 0.00406 kcal/mol
298.15 K, 10000 kPa, x2 = 0.699 | 0.349 ± 0.00382 kcal/mol
298.15 K, 10000 kPa, x2 = 0.752 | 0.313 ± 0.00359 kcal/mol
298.15 K, 10000 kPa, x2 = 0.798 | 0.272 ± 0.00311 kcal/mol
298.15 K, 10000 kPa, x2 = 0.849 | 0.218 ± 0.00263 kcal/mol
298.15 K, 10000 kPa, x2 = 0.901 | 0.154 ± 0.00222 kcal/mol
298.15 K, 10000 kPa, x2 = 0.95 | 0.081 ± 0.00182 kcal/mol
308.15 K, 10000 kPa, x2 = 0.047 | 0.0714 ± 0.00177 kcal/mol
308.15 K, 10000 kPa, x2 = 0.098 | 0.148 ± 0.00225 kcal/mol
308.15 K, 10000 kPa, x2 = 0.146 | 0.213 ± 0.00263 kcal/mol
308.15 K, 10000 kPa, x2 = 0.193 | 0.266 ± 0.00311 kcal/mol
308.15 K, 10000 kPa, x2 = 0.243 | 0.314 ± 0.00359 kcal/mol
308.15 K, 10000 kPa, x2 = 0.291 | 0.352 ± 0.00382 kcal/mol
308.15 K, 10000 kPa, x2 = 0.343 | 0.383 ± 0.00406 kcal/mol
308.15 K, 10000 kPa, x2 = 0.39 | 0.404 ± 0.0043 kcal/mol
308.15 K, 10000 kPa, x2 = 0.492 | 0.426 kcal/mol and 0.423 kcal/mol
308.15 K, 10000 kPa, x2 = 0.541 | 0.424 ± 0.00454 kcal/mol
308.15 K, 10000 kPa, x2 = 0.591 | 0.415 ± 0.0043 kcal/mol
308.15 K, 10000 kPa, x2 = 0.641 | 0.398 ± 0.0043 kcal/mol
308.15 K, 10000 kPa, x2 = 0.692 | 0.371 ± 0.00406 kcal/mol
308.15 K, 10000 kPa, x2 = 0.744 | 0.335 ± 0.00359 kcal/mol
308.15 K, 10000 kPa, x2 = 0.794 | 0.291 ± 0.00335 kcal/mol
308.15 K, 10000 kPa, x2 = 0.896 | 0.168 ± 0.00232 kcal/mol
308.15 K, 10000 kPa, x2 = 0.947 | 0.0912 ± 0.00194 kcal/mol
